In data set [1] the test system is catalepsy. In words: Catalepsy in rats (IP), modified Tedeschi procedure. The data set is classed as in vivo, rat. The note with it: IP administration in rats, as free base (Table 7).
Procedure: (§2) Drugs were blind tested with positive and negative controls. […] The modified procedure is as follows.
(§3) Groups of six rats are dosed (IP) with drugs in saline solution and tested hourly over a six hour period. A phenothiazine or non-phenothiazine reference standard is tested concomitantly as a positive control; negative controls receive only the saline vehicle. After administration the rats are positioned hourly with each foot on a No. 7 rubber stopper. A rat is considered cataleptic if it remains immobile on the stoppers for five seconds or longer at two or more consecutive hourly observation intervals.
Data set [2] deals with apomorphine-induced emesis. Nature of the data set: Reduction of apomorphine-induced emesis in dogs, oral administration. The data set is classed as in vivo, dog. The protocol:
(§1) The anti-emetic properties of the compounds of Formulae I and II were established using a modification of the methods of Chen and Ensor, J. Pharmac. Exp. Ther. 98: 245-250 (1950) and of Leonard et al, J. Pharmac. Exp. Ther. 154, 339-345 (1966). Drug activity was assessed by its ability to reduce the frequency of apomorphine-induced emesis in dogs. The dogs were prescreened for fairly constant emetic responses to the subcutaneous administration of 0.1 mg./kg. of apomorphine hydrochloride, and those which vomited five or more times in the 40-minute period after apomorphine administration were selected for drug studies.
Groups of three dogs were used in preliminary tests and for the determinations of time of peak drug effect. Dose response curves were usually obtained using four drug-treated groups; each group contained at least three dogs. The dogs were fed approximately 17 hours prior to a test. […] Frequency of emesis was determined during the next 40 minutes and emesis was counted as the actual expulsion of stomach contents. […]
Dogs were re-used at intervals of not less than one week. […] The difference is expressed as a percentage decrease relative to controls. […] The ED50 was calculated by the method of Goldstein (Biostatistics, An Introductory Test; Pages 156-161; The MacMillan Co., New York, 1964). […]

Data set [3] relates to apomorphine-induced emesis. Nature of the data set: Reduction of apomorphine-induced emesis in dogs, subcutaneous administration. The data set is classed as in vivo, dog. The following applies: for ED50: Canis lupus familiaris, sc, read-out: ED50, Anti-Emetic Effect of Subcutaneous Administration. On the procedure:
as §1
Groups of three dogs were used in preliminary tests and for the determinations of time of peak drug effect. Dose response curves were usually obtained using four drug-treated groups; each group contained at least three dogs. The dogs were fed approximately 17 hours prior to a test. Drugs were administered and at suitable intervals the dogs received 0.1 mg/kg of apormorphine hydrochloride subcutaneously. Frequency of emesis was determined during the next 40 minutes and emesis was counted as the actual expulsion of stomach contents.
In oral studies, drugs were administered in gelatin capsules (controls received an empty capsule). In the subcutaneous studies, drugs were administered in distilled water and/or polyethylene glycol-300.
Dogs were re-used at intervals of not less than one week. The ED50 is the dose which reduces the frequency of emesis of drug treated dogs to a value 50% below that of controls. Mean frequency of emesis for each drug treated group was compared with a mean control value derived by pooling the prior control emetic frequencies for all dogs used on that test day. The difference is expressed as a percentage decrease relative to controls. The per cent decrease in mean frequency of emesis for each drug-treated group (ordinate) was plotted against log dose (abscissa) on semi-log graph sheets. The ED50 was calculated by the method of Goldstein (Biostatistics, An Introductory Test; Pages 156-161; The MacMillan Co., New York, 1964).
Three dogs selected as described above were injected subcutaneously with 5.0 mg./kg. (3.12 mg./kg. expressed as free base) of the test drug 4-amino-N-(1-cyclohexyl-3-pyrrolidinyl)-N-methyl-benzamide cyclohexane-sulfamate from compound Example 4. One hour later apormorphine hydrochloride was administered in doses of 0.1 mg./kg. subcutaneously. Complete blockage of emesis (-100%) was observed over the 40-minute period following administration of apomorphine hydrochloride. […] (0.27 mg./kg. expressed as free base) was established for subcutaneous administration of the test drug.
Using the technique described in the foregoing general procedure and pharmacology in Example 1 for subcutaneous evaluation of test drugs against apomorphine induced emesis, results for additional compounds were obtained as shown in Table 4.

A short description of data set [4]: Catalepsy in rats (IP), modified Tedeschi procedure. The data set is classed as in vivo, rat. The following applies: rat, in vivo; IP administration in rats; as free base (Table 7).
Procedure: as §2, §3

As for `Nc1ccc(C(=O)NC2CCN(C3CCCCC3)C2)cc1` (stereo not drawn) [Example 23], in data set [1] (at 94.2 mg/kg), the “Catalepsy (As Free Base), percent of rats cataleptic” value stood at 33%.
Consider `O=C(NC1CCN(C2CCCCC2)C1)c1ccccc1` (stereo not drawn) [Example 24], for which, in data set [2] (oral, dose level of 5 mg./kg. (Table 5 footnote a)), the reduction in emesis came out at 60%.
Turning to `O=C(NC1CCN(C2CCCCC2)C1)c1ccc(F)cc1` (stereo not drawn) [Example 10], the ED50 in data set [3] turned out to be 0.15 mg/kg.
On to `CN(C(=O)c1ccc(N)cc1)C1CCN(C2CCCCC2)C1` (stereo not drawn) [Example 4, 4-Amino-N-(1-cyclohexyl-3-pyrrolidinyl)-N-methylbenzamide Cyclohexanesulfamate], for which the “Catalepsy (As Free Base), ED50 or other: highest dose without catatonia” value in data set [1] is on record as “no catatonia to 125”. Further, the “change in frequency of apomorphine-induced emesis” value in data set [3] (subcutaneous 5.0 mg./kg. (3.12 mg./kg. as free base), 1 h before apomorphine 0.1 mg./kg. s.c., 40-minute observation, dogs) was -100%. In data set [2] (oral 2.5 mg./kg. in capsules, 2 h before apomorphine 0.1 mg./kg. s.c.), the “change in apomorphine induced emesis” value is listed as -95%.
As for `CN(C(=O)c1ccc([N+](=O)[O-])cc1)C1CCN(C2CCCCC2)C1` (stereo not drawn) [Example 27], in data set [1], the “Catalepsy (As Free Base), ED50 or other: highest dose without catatonia” value is given as “no catatonia to 100” and the lethal dose is given as 100 mg/kg.
For the compound `O=C(NC1CCN(C2CCCCC2)C1)c1ccc([N+](=O)[O-])cc1` (stereo not drawn) [Example 25], the ED50 in data set [4] was determined as 28 mg/kg.
Take `O=C(NC1CCN(c2ccccc2)C1)c1ccc([N+](=O)[O-])cc1` (stereo not drawn) [Example 3, N-(1-Phenyl-3-pyrrolidinyl)-4-nitrobenzamide]: in data set [3] (dogs, subcutaneous, dose level of 5 mg./kg. (Table 4 footnote a)), the reduction in emesis is listed as 50%.
For `O=C(NC1CCN(C2CCCCC2)C1)c1cc([N+](=O)[O-])cc([N+](=O)[O-])c1` (stereo not drawn) [Example 12], the ED50 in data set [3] was found to be 0.15 mg/kg.
Still for that read-out and setting: the same measure for `CC(=O)Nc1ccc(C(=O)NC2CCN(C3CCCCC3)C2)cc1` (stereo not drawn) [Example 7, N-(1-Cyclohexyl-3-pyrrolidinyl)-4-acetamidobenzamide]: 2.4 mg/kg.

(Values after patent US3966957A, “Method for controlling emesis with N-(1-substituted-3-pyrrolidinyl)benzamides and thiobenzamides” (A. H. Robins Company, Incorporated, priority 1974, dated 1976).)
